Data set [1] concerns TNNT2 minigene exon 5 splicing in HeLa cells expressing 960 CUG repeats. The data set is described as follows: TNNT2 minigene splicing rescue in HeLa cell DM1 model. Format: cell-based. The following applies: for rescue of TNNT2 exon 5 mis-splicing: propamidine up to 130 μM; for EC50: read-out: concentration needed to observe 50% rescue (EC50) of TNNT2 mis-splicing, exon 5 inclusion, 16-18 hours.

In data set [2] the test system is INSR minigene exon 11 splicing in HeLa cells expressing 960 CUG repeats. The data set is described as follows: INSR minigene splicing rescue in HeLa cell DM1 model. In kind it is cell-based. The following applies: for EC50: HeLa cell DM1 model, exon 11 inclusion, 16-18 hours, read-out: EC50 for rescue of INSR mis-splicing.
The target of another data set is T1, MBNL1/(CUG)4 complex (Homo sapiens, UniProt Q9NR56).
T1 construct: The MBNL1 medium construct (1-260) was purified as previously described; made in house
T1 sequence (Q9NR56 1-260): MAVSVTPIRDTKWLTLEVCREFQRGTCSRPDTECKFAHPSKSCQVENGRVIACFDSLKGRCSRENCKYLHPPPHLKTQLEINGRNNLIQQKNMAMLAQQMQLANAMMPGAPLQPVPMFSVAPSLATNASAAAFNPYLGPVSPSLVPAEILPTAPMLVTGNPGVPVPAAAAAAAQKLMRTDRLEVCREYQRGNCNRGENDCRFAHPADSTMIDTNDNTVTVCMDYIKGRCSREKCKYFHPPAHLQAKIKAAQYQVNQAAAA
The data set is described as follows: competitive EMSA (gel shift assay), disruption of the MBNL1/(CUG)4 complex. In kind it is binding.

The nature of another data set: water solubility. In kind it is physicochemical.
The next data set concerns Clcn1 exon 7a. The data set is described as follows: Clcn1 exon 7a splicing in vastus muscle of HSALR DM1 mice. In kind it is in vivo. Here is the method: (§1) Homozygous HSALR transgenic mice in line 20b (FVB inbred background) were previously described (Mankodi et al., Science 289″1769-1773, 2000). Gender-matched mice of 10-14 weeks of age were treated with heptamidine at the indicated dose by daily intraperitoneal injection for 7 days. Control mice received 5% glucose injections. Mice were sacrificed 1 d after the final injection and vastus (quadriceps) muscle was obtained for splicing analysis. Mice in the withdrawal (WD) group were treated with 30 mg/kg heptamidine for 7 days and then left untreated for 10 days before sacrifice. […] RNA was isolated, reverse transcribed, and amplified by PCR, and analyzed on agarose gels using a fluorimager as previously described (Warf et al., Proc. Natl. Acad. Sci. USA 106:18551-18556, 2009).
The HSA^LR DM1 mouse model expresses 220 CUG repeats under the skeletal promoter (Mankodi et al., Science 289″1769-1773, 2000). […] Wild type adult mice include exon 7a of the Clcn1 pre-mRNA at a level of 4±1% while HSA^LR mice include exon 7a at steady state levels of 47±1% (FIG. 3, note that exon 7a inclusion isoforms are subject to nonsense mediated decay).

The test system of another data set is Atp2a1 exon 22. The data set is described as follows: Atp2a1 exon 22 splicing in vastus muscle of HSALR DM1 mice. Format: in vivo. As for the experimental part:
as §1
The MBNL regulated exon of Atp2a1 (exon 22) is included in the presence of MBNL proteins (positively regulated). Wild type adult mice included this exon 100±1% of the time (FIG. 4). When MBNL proteins are sequestered by the 220 CUG repeats present in HSALR mice, exon 22 inclusion drops to 23±3%. […] Additionally, after being treated with 30 mg/kg heptamidine for 7 d, mice went untreated for 10 days, and splicing of Clcn1 and Atp2a1 was examined. […] The severity of myotonia was graded by insertion of extracellular recording electrodes into muscle tissue (electromyography) under general anesthesia.

In a further data set the test system is HSALR mice. The data set is described as follows: electromyography, myotonia grade in vastus muscle of HSALR mice. In kind it is in vivo. Conditions: 20 or 30 mg/kg for 7 days, controls grade 3. Here is the method:
as §1
Electromyography was performed under general anesthesia as described previously (Kanadia, Science 302:1978-1980, 2003). Briefly, at least 10 needle insertions were performed in vastus muscle and myotonic discharges were graded on a four point scale: 0, no myotonia; 1, occasional myotonic discharge in less than 50% of needle insertions; 2, myotonic discharge with more than 50% of insertions; and 3, myotonic discharge with nearly all insertions.

Data set [3] addresses T2, MBNL1 (residues 1-260, medium construct) (UniProt Q9NR56 Q9NR56:1-260).
T2 sequence: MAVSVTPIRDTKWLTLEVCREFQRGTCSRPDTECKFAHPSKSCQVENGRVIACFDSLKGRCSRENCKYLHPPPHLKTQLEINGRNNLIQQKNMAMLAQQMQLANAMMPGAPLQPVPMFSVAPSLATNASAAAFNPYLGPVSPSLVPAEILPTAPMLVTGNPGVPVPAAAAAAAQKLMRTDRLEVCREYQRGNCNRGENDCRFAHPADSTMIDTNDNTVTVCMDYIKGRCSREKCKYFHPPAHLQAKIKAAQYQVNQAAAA
The data set is described as follows: EMSA; 250 nM MBNL1, 0.5 nM RNA, 175 mM NaCl, 5 mM MgCl2, 20 mM Tris pH 7.5, heparin 0.1 mg/mL, RT; complex disrupted by diamidines (pentamidine IC50 39 uM, small-molecule competition). The following applies: label: 5'-32P; hairpin with UUCG cap. As for the experimental part:
The 5′ end labeled (CUG)₄ RNA was heated at 95° C. for 3 minutes in 250 mM NaCl, 25 mM MgCl₂, and 75 mM Tris pH 7.5 by heating at 95° C. for 3 minutes. The reaction was cooled on ice for 5 minutes, BSA and heparin were added, and the reaction cooled another 5 minutes. MBNL1 was then added to the RNA and incubated at room temperature (RT) for 10 minutes. Amidine derivative was added, followed by another 5 minute RT incubation, followed by the addition of bromophenol blue. The final reaction volume of 10 μL was incubated at RT for 25 minutes. Final reaction conditions were 0.5 nM (CUG)₄, 175 mM NaCl, 20 mM Tris pH 7.5, 5 mM MgCl₂, 2 mg/mL BSA, 0.1 mg/mL heparin, 1.25 mM β-mercaptoethanol, 1.25% (v/v) glycerol, 250 μM bromophenol blue, and 250 nM MBNL. Bromophenol blue was added at 250 μM since the activity of pentamidine is dependent upon bromophenol blue in vitro. […] IC₅₀ values were calculated as previously described (Warf et al., Proc. Natl. Acad. Sci. USA 106:18551-18556, 2009). In brief, gels were quantified using ImageQuant™ software (Molecular Dynamics/GE Healthcare, Piscataway, N.J.). The percent of RNA bound was determined by taking the ratio of the RNA:protein complex (including any well shifting) to the total RNA, per lane. IC₅₀ values were determined with KaleidaGraph (Synergy, Reading, Pa.) software using the equation: […]
In general terms: A gel shift assay detects complexes by their altered migration in electrophoresis.

Setting [4] is: competitive EMSA, 250 nM MBNL, 0.5 nM (CUG)4, 250 μM bromophenol blue, ± standard deviation of triplicate, read-out: IC50 of diamidine analogs.
Setting [5] is: competitive EMSA as in Example 1, Table 2, read-out: IC50 of diamidine derivatives.
Where [6] appears, read: 30 mg/kg for 7 days, then 10 days untreated.
[7] abbreviates: HSALR mice, daily intraperitoneal for 7 days.

“Also recorded” adds a separate entry of the source. Where two headings read alike, the source gives them in different places.

By IC50 is commonly meant the concentration that gives 50% inhibition.

For `N=C(N)c1ccc(OCCCCCCCCOc2ccc(C(=N)N)cc2)cc1` [Octamidine], in data set [1], the “rescue of TNNT2 exon 5 mis-splicing” value is recorded as “slight rescue of TNNT2 mis-splicing”. Further, in the data set with HeLa cells, the “cell toxicity” value is “toxicity issues”. The EC50 in [2] turned out to be 7 ± 1 µM. The IC50 at MBNL1/(CUG)4 complex (setting [4]) turned out to be 20 ± 1 µM.
As to `N=C(N)c1ccc(OCCCCOc2ccccc2)cc1` [drawing 8 n=4], the IC50 on MBNL1/(CUG)4 complex (setting [5]) was 209 µM.
Same read-out and setting: with `N=C(N)c1ccc(OCCCOc2ccccc2)cc1` [drawing 8 n=3] the figure was 281 µM.
As for `N=C(N)c1ccc(OCCCCCOc2ccccc2)cc1` [drawing 8 n=5], the IC50 at MBNL1/(CUG)4 complex (setting [5]) was determined as 199 µM.
As for `N=C(N)c1ccc(OCCc2ccccc2)cc1` [drawing 9 n=2], the IC50 at MBNL1/(CUG)4 complex (setting [5]) stood at 414 µM.
Turning to `CC(=O)ONC(=N)c1ccc(OCCCCCOc2ccc(C(=N)NOC(C)=O)cc2)cc1` [compound 128, 1,5-bis(4-acetoxyamidinophenoxy)pentane (diacetyldiamidoximeester)], the “cell toxicity of prodrugs relative to parent amidine” value in the data set on HeLa cells is “less toxic than pentamidine”. Besides, the “activity of pentamidine prodrugs in the INSR splicing assay” value in [2] (HeLa cell splicing assay, FIG. 6) is listed as “showed activity in the splicing assay”.
In the case of `N=C(N)c1ccc(OCCCCCOc2ccc(C(=N)N)cc2)cc1` [Pentamidine, reference compound], the EC50 in data set [1] (Homo sapiens) turned out to be 20 ± 4 µM; in [2] (Homo sapiens), 31 ± 2 µM. Further, the “rescue of TNNT2 exon 5 mis-splicing” value in data set [1] is “lowered exon 5 inclusion levels below that of wild type”. Moreover, on MBNL1/(CUG)4 complex (setting [4]), the IC50 was 39 ± 2 µM.
Regarding `N=C(N)c1ccc(OCCCc2ccccc2)cc1` [drawing 9 n=3], the IC50 at MBNL1/(CUG)4 complex (setting [5]) was 169 µM.
On to `N=C(N)c1ccc(OCCCCCCOc2ccccc2)cc1` [drawing 8 n=6], for which, on MBNL1/(CUG)4 complex (setting [5]), the IC50 was determined as 236 µM.
As for `CC(=O)ON=C(N)c1ccc(OCCCCCCCOc2ccc(C(N)=NOC(C)=O)cc2)cc1` [acetoxy-amdine derivative of heptamidine], the “cell toxicity of prodrugs relative to parent amidine” value with HeLa cells was “less toxic than heptamidine”.
On to `N=C(N)c1ccc(OCCCCCCCOc2ccc(C(=N)N)cc2)cc1` [Heptamidine], for which the water solubility entry in “water solubility” is on record as “retaining water solubility”. For the same molecule, the “Clcn1 splicing after withdrawal” value with Clcn1 exon 7a (setting [6]) is “exon inclusion levels returned to control HSALA levels; also recorded: complete return to disease state splicing levels”. For the same molecule, the “Clcn1 exon 7a inclusion” value with Clcn1 exon 7a (HSALR mice, 20 mg/kg daily intraperitoneal for 7 days, wild type 4±1%, HSALR 47±1%) worked out at 6±1%. The “rescue of Clcn1 exon 7a mis-splicing” value in the data set on Clcn1 exon 7a (setting [7]) is “dose-dependent reduction of exon 7a inclusion; also recorded: Complete rescue”. Also, in the data set with Atp2a1 exon 22 (setting [6]), the “Atp2a1 splicing after withdrawal” value is given as “exon inclusion levels returned to control HSALA levels; also recorded: complete return to disease state splicing levels”. In addition, the “rescue of Atp2a1 exon 22 missplicing” value in the data set on Atp2a1 exon 22 (HSALR mice, 30 mg/kg) is given as “about 50%”. For the same molecule, in the data set with Atp2a1 exon 22 (HSALR mice, 30 mg/kg/day for 7 days, wild type 100±1%, HSALR 23±3%), the “Atp2a1 exon 22 inclusion” value came out at 62±4%. Also, the “rescue of Atp2a1 exon 22 mis-splicing” value with Atp2a1 exon 22 (setting [7]) is on record as “full rescue with heptamidine could not be reached; also recorded: Partial rescue of missplicing”. Besides, the EC50 stood at 15 ± 6 µM in data set [1] (Homo sapiens) and 9 ± 1 µM in data set [2] (Homo sapiens). Further, the IC50 at MBNL1/(CUG)4 complex (setting [4]) was 20 ± 2 µM. For the same molecule, the “myotonia grade (electromyography)” value in the data set with HSALR mice is on record as “grade 1 (occasional myotonic discharge) or grade 0; also recorded: occasional myotonic discharges with less than 50% of insertions (grade 1) or no myotonia (grade 0)”.
Take `N=C(N)c1ccc(OCCCCCCCOc2ccccc2)cc1` [drawing 8 n=7]: on MBNL1/(CUG)4 complex (setting [5]), the IC50 turned out to be 253 µM.
Turning to `N=C(N)c1ccc(OCCCCOc2ccc(C(=N)N)cc2)cc1` [Butamidine], in data set [1], the “rescue of TNNT2 exon 5 mis-splicing” value is reported as “lowered exon 5 inclusion levels below that of wild type” and the EC50 came out at 23 ± 5 µM. Further, the EC50 in data set [2] stood at 34 ± 7 µM. Also, the IC50 on MBNL1/(CUG)4 complex (setting [4]) amounted to 85 ± 17 µM.
In the case of `N=C(N)c1ccc(OCCCCCCCCCOc2ccc(C(=N)N)cc2)cc1` [Nonamidine], the “rescue of TNNT2 exon 5 mis-splicing” value in [1] is recorded as “unable to rescue splicing defects before causing significant cell death”. In addition, the “concentration that is toxic / causes significant cell death” value with HeLa cells (HeLa cells, TNNT2 splicing assay) stood at 4 µM. Further, the EC50 in [2] was 6 ± 1 µM. For the same molecule, the IC50 at MBNL1/(CUG)4 complex (setting [4]) is 14 ± 1 µM.
Take `N=C(N)c1ccc(OCCCCCCOc2ccc(C(=N)N)cc2)cc1` [Hexamidine]: the EC50 in data set [1] (Homo sapiens) came to 12 ± 3 µM; in [2] (Homo sapiens), 15 ± 1 µM. Moreover, the “cell toxicity” value with HeLa cells was “low toxicity”. Further, the IC50 at MBNL1/(CUG)4 complex (setting [4]) worked out at 26 ± 2 µM.
For `N=C(N)c1ccc(OCCCOc2ccc(C(=N)N)cc2)cc1` [Propamidine], the “rescue of TNNT2 exon 5 mis-splicing” value in [1] is listed as “did not have the desired effect on TNNT2 mis-splicing”. The “concentration that is toxic / causes significant cell death” value in the data set with HeLa cells (human) was > 130 µM. In addition, the EC50 in [2] (Homo sapiens) turned out to be 64 ± 10 µM. Moreover, at MBNL1/(CUG)4 complex (setting [4]), the IC50 came to 250 ± 10 µM.
Consider `N=C(N)c1ccc(OCCCCc2ccccc2)cc1` [drawing 9 n=4], for which the IC50 on MBNL1/(CUG)4 complex (setting [5]) stood at 212 µM.
For GCUGCUGUUCGCUGCUG (ssRNA) [(CUG)4 hairpin RNA], the binding result in [3] is given as “binds”.

(Values after US20130281462A1, “ARYL DIAMIDINES AND PRODRUGS THEREOF FOR TREATING MYOTONIC DYSTROPHY” (University of Oregon, priority 2012, published 2013).)
